Earlier results in patent US12714758B2, “DOTA-hapten compositions for anti-DOTA/anti-tumor antigen bispecific antibody pretargeted radioimmunotherapy” (Memorial Sloan Kettering Cancer Center, priority 2020, dated 2026).

Test system: GD2
Conditions: 24 hours post-injection

^177Lu-S-2-(4-aminobenzyl)-1,4,7,10-tetraazacyclododecane tetraacetic acid chelate [^177Lu-DOTA-Bn]
blood uptake: 0.49±0.09 % ID/g
kidney uptake: 0.83±0.10 % ID/g
tumor uptake (average±SD, n=5): 10.29±2.87 % ID/g
